{"source": "ChEMBL document CHEMBL5053488", "about": "“Motobamide, an Antitrypanosomal Cyclic Peptide from a Leptolyngbya sp. Marine Cyanobacterium” (J Nat Prod, 2021)", "key": {"HL-60": {"system": "HL-60", "experiment": "Growth inhibition of human HL-60 cells at 10 uM incubated for 72 hrs by MTT assay", "type": "functional, cell-based"}, "[1]": {"system": "Trypanosoma brucei rhodesiense", "experiment": "Antitrypanosomal activity against Trypanosoma brucei rhodesiense IL-1501 assessed as parasite growth inhibition incubated for 69 hrs by AlamarBlue assay", "type": "functional, organism-based", "conditions": "IL-1501, 69 h"}, "[2]": {"experiment": "Ratio of IC50 for cytotoxicity against human WI-38 cells to IC50 for antitrypanosomal activity against Trypanosoma brucei rhodesiense IL-1501"}, "HeLa": {"system": "HeLa", "experiment": "Growth inhibition of human HeLa cells at 10 uM incubated for 72 hrs by MTT assay", "type": "functional, cell-based"}, "WI-38": {"system": "WI-38", "experiment": "Cytotoxicity against human WI-38 cells assessed as cell growth inhibition measured after 72 hrs by MTT assay", "type": "cell-based", "conditions": "WI-38, 72 h"}}, "note": "pIC50: −log10 of the molar value. Active and inactive are the calls of the source. The rule behind the calls is not given here. Numbered stars: 1 amine (or outer) side, 2 acyl side, 3 side chain; on linkers, the order of the positions; unused ones are H or OH. Square brackets hold non-standard residues; d marks the D form. Peptide text beside a SMILES is read from it. X1 = CC(C)=CC[C@@]12C[C@@H](C(=O)[*:2])N([*:1])[C@@H]1Nc1ccccc12", "data": [{"smiles": "CSCC[C@@H]1NC(=O)[C@@H]2CCCN2C(=O)[C@H](C(C)C)NC(=O)[C@@H]2CCCN2C(=O)[C@@H]2CCCN2C(=O)[C@H](CC(C)C)NC(=O)[C@@H]2C[C@@]3(CC=C(C)C)c4ccccc4N[C@H]3N2C(=O)[C@@H]2CCCN2C(=O)[C@H](C(C)C)NC(=O)[C@H](CC(C)C)NC1=O", "note": "(cyclo(LPPVPMLVP[X1]))", "values": [{"measurement": "growth inhibition (GI)", "setting": "HL-60", "result": "inactive"}, {"measurement": "pIC50", "setting": "[1]", "result": 5.64}, {"measurement": "Ratio IC50", "setting": "[2]", "result": ">20"}, {"measurement": "growth inhibition (GI)", "setting": "HeLa", "result": "inactive"}, {"measurement": "pIC50", "setting": "WI-38", "result": 4.26}]}]}
